The values that follow come from patent publication US8318792B2, “Therapeutic agent for amyotrophic lateral sclerosis” (Nippon Medical School Foundation, priority 2006, dated 2012).

One experiment relates to G1H-G93A transgenic mice. Nature of the experiment: Clinical symptomatological evaluation (day of onset, survival period, disease period, stage periods). It is filed as in vivo, mouse. As for the experimental part:
1) The procedure of concentration adjustment, and the amount and the procedure of administration of the compound (a) were as described below. As a base, 0.5% methylcellulose is prepared. 5 mg of the compound (a) is pulverized in an agate mortar, and then a small amount of 0.5% methylcellulose is added to form a complete suspension. Subsequently, a small amount of 0.5% methylcellulose is added gradually, so that finally 5 mg of the compound (a) is suspended in 10 mL of 0.5% methylcellulose. A sample of 5 mg of compound (a)/10 mL of 0.5% methylcellulose (5 mg/10 mL) was prepared by the above-described procedure, and thus the compound (a) was orally administered once a day in a dose of 5 mg per kg of the mouse body weight (5 mg/kg).
As the experimental animal, male transgenic mice over-expressing a high copy number (25 copies) of mutated human SOD1 gene with a G93A point mutation, i.e., B6SJL-TgN [SOD1-G93A]1Gur (G1H-G93A transgenic mice, JR2726; Hemizygote) (Gurney M E, et al., Science, 264, 1772-1775, 1994), were purchased from Jackson Laboratory (Bar Harbor, USA) and used. At the same time, wild-type male mice from the same litter, B6SJL-TgN[SOD1-G93A]1Gur (Wild-type), were also purchased from Jackson Laboratory and used.
The mice were subjected to a clinical symptomatological evaluation everyday. The clinical symptomatological evaluation was performed from one week after the arrival from Jackson Laboratory. […] The day of onset, the survival period and the disease period were indicated by the number of days. In regard to the indication of the number of days of the disease period, one day (one disease day) corresponds to within 24 hours from the onset (the “onset” is determined by the observation of the clinical symptomatological evaluation stage 1), and two days (two disease days) corresponds to more than 24 hours after and within 48 hours from the onset. Subsequent disease days after the onset were determined in the same manner.
The mice were divided into seven experimental groups, to which a placebo, the compound (a), compound (b), compound (c) or allopurinol was administered. That is, the seven groups consist of: an experimental group administered with placebo; a treatment experimental group administered with compound (a) before onset; a treatment experimental group administered with compound (a) after onset; a treatment experimental group administered with compound (b) before onset; a treatment experimental group administered with compound (c) before onset; a treatment experimental group administered with compound (c) after onset; and a treatment group administered with allopurinol before onset. Details of the respective groups will be described in the following.
Ten G1H-G93A transgenic mice were used. From the 80th day after birth, 5 mg/kg of the compound (a) was orally administered everyday. […]
Ten G1H-G93A transgenic mice were used. From the 80th day after birth, 5 mg/kg of the compound (b) was orally administered everyday.
Ten G1H-G93A transgenic mice were used. From the 80th day after birth, 5 mg/kg of the compound (c) was orally administered everyday. […]
Ten G1H-G93A transgenic mice were used. From the 80th day after birth, 5 mg/kg of allopurinol was orally administered everyday.
In regard to the results of the clinical symptomatological evaluation, the day of onset, the survival period (days taken to show quadriplegia and to reach the moribund state), the disease period (days taken to show quadriplegia and to reach the moribund state, from the day of onset), and the time periods for the respective stages of the clinical symptomatological evaluation, were indicated by the average±standard deviation. In regard to the results of the exercise tolerance test, the score values of the respective exercise tolerance tests, including the extension reflex test, inclined plane test, footprint test, rotarod test and beam balance test, were indicated by the average±standard deviation. […]

Experiment [1] concerns neurotoxin in cerebrospinal fluid from ALS patients. The note with it: in vitro; Non-Patent Document 3; cited from earlier work.
Experiment [2] concerns transgenic mouse which expresses human mutated SOD1 gene. The note with it: Non-Patent Document 9, cited from earlier work.
Where [3] appears, read: 5 mg/kg oral daily from 80th day after birth (before onset), Mann-Whitney's U test, log-rank test.
Where [4] appears, read: 5 mg/kg oral once a day from 80th day after birth (before onset), average±SD.

Regarding `Oc1ncnc2[nH]ncc12` [allopurinol, reference compound], the “time periods for the respective stages in comparison to placebo group” value in the experiment with G1H-G93A transgenic mice (5 mg/kg oral daily from 80th day after birth (before onset), Mann-Whitney's U test) was “not found to have the extended period of respective stages with significant differences”. In the experiment with G1H-G93A transgenic mice (setting [3]), the “disease period extending effect in comparison to placebo group” value is “did not lead to the onset delaying effect, survival period extending effect or disease period extending effect”; the “onset delaying effect in comparison to placebo group” value was “did not result in significant delaying of the day of onset”; the “survival period extending effect in comparison to placebo group” value was “did not lead to the onset delaying effect, survival period extending effect or disease period extending effect”. Besides, in the experiment with G1H-G93A transgenic mice (setting [4]), the day of onset is 102.2 ± 4.4 days, the disease period was determined as 21.0 ± 3.6 days, the survival period turned out to be 122.2 ± 1.3 days and the “time period of clinical symptomatological stage 1” value is listed as 6.8±1.1 days. Besides, in the experiment with G1H-G93A transgenic mice (setting [4]), the “time period of clinical symptomatological stage 2” value was 5.4±1.3 days, the “time period of clinical symptomatological stage 3” value is 4.4±1.2 days, the “time period of clinical symptomatological stage 4” value worked out at 2.9±0.7 days and the “time period of clinical symptomatological stage 5” value was 1.5±0.5 days. Moreover, in experiment [1], the “action on the neurotoxin in cerebrospinal fluid from ALS patients” value is on record as “counteract the neurotoxin”.
With vitamin E, in experiment [1], the “action on the neurotoxin in cerebrospinal fluid from ALS patients” value is on record as “counteract the neurotoxin”.
With `[O-][n+]1cccc(/C(Cl)=N/OC[C@H](O)CN2CCCCC2)c1` [arimoclomol], in experiment [2], the “effect on life span in the transgenic mouse” value was “prolongation of life”. For the same compound, in experiment [2] (intraperitoneal administration in an amount of 10 mg/kg), the ALS treating effect result is “effective”.
